Data as given in US4388236A, “Enkephalin-like compounds in bovine adrenal medulla” (Hoffmann-La Roche Inc., priority 1982, dated 1983).
Where “and” joins values, the source holds several entries; their conditions need not be identical. Identical values can stand only once. Entries after “also recorded” stand apart in the source; their conditions may differ. No end group written: not given here.

Key:
[1] = molecular target: T1, opiate receptor (Mus musculus, UniProt P32300); experiment: Radioreceptor assay (opiate receptor binding activity)
T1 construct: endogenous in cells; host or cells: neuroblastoma x glioma hybrid cells (NG108-15)
Description: Extracts of bovine adrenal medulla (BAM) or chromaffin granules (CG) therefrom were obtained by conventional methods known in the art and were purified using gel filtration, high pressure liquid chromatography (HPLC) and fluorometric detection by method of Bohlen, P. et al., Anal. Biochem. 67, 437 (1975).
Opioid activities for peaks I-V were quantitatively determined by conventional means in radioreceptor assays before (Native) and after trypsin digestion of each of the peaks from BAM and CG sources.

[2] = tested on: mice; experiment: Tail flick response (analgesic assay); type: in vivo; parameters: tail flick response, Prior Injection Time (Control) Predose / tail flick response, Post Injection Time 2 min.: unit not given here; conditions: for tail flick response, Prior Injection Time (Control) Predose / tail flick response, Post Injection Time 5 / Response (analgesic activity) / tail flick response, Post Injection Time 10 / tail flick response, Post Injection Time 2 min.: individual mice; for tail flick response, Prior Injection Time (Control) Predose: before intracerebral ventrical injection; for tail flick response, Post Injection Time 5 / Response (analgesic activity) / tail flick response, Post Injection Time 10 / tail flick response, Post Injection Time 2 min. / No. of Mice Responsive/Total No. of Mice: intracerebral ventrical, Beta-endorphin 4.5nm, Arg6-Phe7 met-enkephalin 6 n moles; for tail flick response, Post Injection Time 5 / Response (analgesic activity) / tail flick response, Post Injection Time 10 / No. of Mice Responsive/Total No. of Mice: Acetylcholine 20ng; for Response (analgesic activity) / tail flick response, Post Injection Time 10 / tail flick response, Post Injection Time 2 min.: Met Enk 120nm
Protocol: For the analgesic assay, mice were injected (intracerebral ventrical) with 6 n moles of the synthetic peptide (Tyr-Gly-Gly-Phe-Met-Arg-Phe). The tail flick response assay was carried out according to the method of Dayton, et al., Proc. Soc. […] The tail flick response (analgesic activity) was measured prior to injection and at 2,5 and 10 minutes post injection time. Results are tabulated in Table V. Further results are given in Inturris, et. al., Proc. Nat'l. Acad. Sci. (U.S.A.), 77,5512 (1980).

[3] = tested on: mice; experiment: Tail flick response (analgesic assay); type: in vivo; parameters: tail flick response, Prior Injection Time (Control) Predose / tail flick response, Post Injection Time 2 min.: unit not given here; conditions: individual mice
[4] = tested on: N-terminal directed Met-enkephalin antibody; experiment: Radioimmunoassay with N-terminal directed Met-enkephalin antibody; type: binding; conditions: fractions from RP-18 of peak V; 1.3 g wet weight of chromaffin granules isolated from 30 g of adrenal medulla
Protocol: (§1) Radioimmunoassays were performed using a C-terminal directed Leu-enkephalinantibody and a N-terminal directed Met-enkephalin antibody. The characteristics of these antibodies and methods of use have been described previously and were followed in Lewis, R. V., et al., Biochem. Biophys. Res. Commun. 89, 822 (1979).

[5] = tested on: C-terminal directed Leu-enkephalin antibody; experiment: Radioimmunoassay with C-terminal directed Leu-enkephalin antibody; type: binding; conditions: fractions from RP-18 of peak V; 1.3 g wet weight of chromaffin granules isolated from 30 g of adrenal medulla
Protocol: as §1

[6] = tested on: mice; conditions: intracerebra-ventricular or intravenous administration to mice; cited from earlier work
[7] = tested on: rats; conditions: intracerebra-ventricular or intravenous administration to rats; cited from earlier work

T1 sequence (P32300 whole entry): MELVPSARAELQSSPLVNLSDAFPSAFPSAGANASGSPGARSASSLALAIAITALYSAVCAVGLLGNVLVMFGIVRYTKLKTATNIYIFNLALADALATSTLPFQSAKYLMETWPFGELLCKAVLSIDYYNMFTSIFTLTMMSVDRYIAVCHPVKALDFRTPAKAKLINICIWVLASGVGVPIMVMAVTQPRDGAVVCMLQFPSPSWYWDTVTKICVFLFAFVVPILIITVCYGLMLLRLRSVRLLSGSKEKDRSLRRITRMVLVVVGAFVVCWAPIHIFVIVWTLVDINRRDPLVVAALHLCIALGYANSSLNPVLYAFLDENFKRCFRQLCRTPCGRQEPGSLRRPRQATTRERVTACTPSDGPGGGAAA

Compound	tail flick response, Prior Injection Time (Control) Predose [2]	tail flick response, Post Injection Time 5 [2]	Response (analgesic activity) [2]	tail flick response, Post Injection Time 10 [2]	No. of Mice Responsive/Total No. of Mice [2]	opiate receptor binding activity in radioreceptor assay (in words) [1]	also measured
YGGFMK [Met-enkephalin-(Lys^6)]							binding to the receptor relative to Met-enkephalin ([1]; from binding curves): 9%
Beta-endorphin	4.0 and 4.7 and 4.2 and 5.4 and 4.4 and 4.3	> 10 and > 9 and 3.4 and 3.1	Pos. and Neg.	8 and > 10 and 3.8	5/7		tail flick response, Post Injection Time 2 min. [2]: 5.9 and 3.0 and 4.4 and 3.8; tail flick response, Post Injection Time 20 ([3]; intracerebral ventrical, Beta-endorphin 4.5nm): > 10
YGGFMR [Met-enkephalin-(Arg^6)]						active in the radioreceptor assay at high concentrations; also recorded: binds very poorly	binding activity relative to Leu-enkephalin [1]: less than 3%
CC(C)C[C@H](NC(=O)[C@H](Cc1ccccc1)NC(=O)CNC(=O)CNC(=O)[C@@H](N)Cc1ccc(O)cc1)C(=O)O [Leu-Ek, leucine enkephalin]							N-Terminal radioimmunoassay [4]: 0.4 nmoles/fraction; C-Terminal radioimmunoassay [5]: 1.0 nmoles/fraction; analgesia [6]: weak and short term analgesia; analgesia [7]: weak and short term analgesia
YGGFMR [I-T-1]						active in the radioreceptor assay at high concentrations	
YGGFMK [F-T-1]						opiate receptor binding activity	
CSCC[C@H](NC(=O)[C@H](Cc1ccccc1)NC(=O)CNC(=O)CNC(=O)[C@@H](N)Cc1ccc(O)cc1)C(=O)O [F-T-2]						most active tryptic peptide	
CC(=O)OCC[N+](C)(C)C [Acetylcholine]	4.6 and 5.0 and 4.5	6.1 and > 10		> 10	3/3		
YGGFMRF [Arg^6 --Phe^7 met-enkephalin, Tyr-Gly-Gly-Phe-Met-Arg-Phe]	5.7 and 5.2 and 4.6 and 3.6 and 3.7 and 4.0	5.4 and 4.2 and 3.8 and 9.0 and 4.0	Neg. and Pos. and neg.	6.3 and 5.8 and > 10 and 5.0 and 4	4/8		tail flick response, Post Injection Time 2 min. [2]: 4.9 and 4.6 and 4.3 and 4.0 and 3.4 and 4.5
CSCC[C@H](NC(=O)[C@H](Cc1ccccc1)NC(=O)CNC(=O)CNC(=O)[C@@H](N)Cc1ccc(O)cc1)C(=O)O [Met-Ek, methionine enkephalin]			Neg.				Radioreceptor ([1]; fractions from RP-18 of peak V, 1.3 g wet weight of chromaffin granules isolated from 30 g of adrenal medulla): 1.0 nmoles/fraction; N-Terminal radioimmunoassay [4]: 1.0 nmoles/fraction; C-Terminal radioimmunoassay [5]: 0.03 nmoles/fraction; tail flick response, Prior Injection Time (Control) Predose ([3]; before intracerebral ventrical injection, listed as Met Enk): 4.1 and 5.4 and 4.6; tail flick response, Post Injection Time 10 ([3]; intracerebral ventrical, Met Enk 120nm, Acetylcholine 20ng, Beta-endorphin 4.5nm, Arg6-Phe7 met-enkephalin 6 n moles): 6.3 and 5.9 and 5.0; tail flick response, Post Injection Time 2 min. ([3]; intracerebral ventrical, Met Enk 120nm, Beta-endorphin 4.5nm, Arg6-Phe7 met-enkephalin 6 n moles): 4.0 and 4.7; analgesia [6]: weak and short term analgesia; analgesia [7]: weak and short term analgesia
